Patent US9290691B2, “Organic el material-containing solution, method for forming organic el thin film, organic el device comprising organic el thin film, and method for manufacturing organic el display panel” (IDEMITSU KOSAN CO., LTD., priority 2007, dated 2016)

experiment: Solubility Evaluation 1: anthracene compounds in various solvents, visual check; assay type: physicochemical; parameters: key to Solubility in Cyclohexanone / Solubility in Toluene / Solubility in Xylene / Solubility in Tetralin / Solubility in Dodecylbenzene / Solubility in Anisole / Solubility in Dioxane / Solubility in Butyl Acetate / Solubility in Methylethylketone / Solubility in N-methylpyrolidone: A: it was confirmed that the compounds were dissolved in the dropped solvents; C: the compounds were not completely dissolved and undissolved residues remained; conditions: 30 mg compound, 1 g solvent, visual check
Experimental: (§1) 30 mg of each of anthracene compounds 1 to 14 represented by the following formulae was put into a sample bottle, and 1 g of each of various solvents was dropped into the bottle with agitation. By visual check, a case where it was confirmed that the compounds were dissolved in the dropped solvents is marked as A and a case where the compounds were not completely dissolved and undissolved residues remained is marked as C.

Row | Structure (SMILES) | Solubility in Anisole | Solubility in Butyl Acetate | Solubility in Cyclohexanone | Solubility in Dioxane | Solubility in Dodecylbenzene | Solubility in Methylethylketone | Solubility in N-methylpyrolidone | Solubility in Tetralin | Solubility in Toluene | Solubility in Xylene
1 | c1ccc2cc(-c3ccc(-c4c5ccccc5c(-c5ccc(-c6cccc7ccccc67)cc5)c5ccccc45)cc3)ccc2c1 [Compound 7] | C | C | A | A | C | C | A | C | A | A
2 | c1ccc2cc(-c3c4ccccc4c(-c4ccc(-c5cccc6ccccc56)cc4)c4ccccc34)ccc2c1 [Compound 1] | C | C | A | A | C | C | A | C | A | A
3 | c1cc(-c2ccc3ccccc3c2)cc(-c2c3ccccc3c(-c3cccc4ccccc34)c3ccccc23)c1 [Compound 6] | C | C | A | C | C | C | A | C | C | C
4 | c1ccc(-c2c3ccccc3c(-c3cccc(-c4cccc(-c5c6ccccc6c(-c6ccccc6)c6ccccc56)c4)c3)c3ccccc23)cc1 [Compound 12] | C | C | C | C | C | C | C | C | C | C
5 | c1ccc(-c2ccc(-c3c4ccccc4c(-c4ccc(-c5ccccc5)cc4)c4ccccc34)cc2)cc1 [Compound 13] | C | C | C | C | C | C | C | C | C | C
6 | c1ccc(-c2cc(-c3ccc4ccccc4c3)cc(-c3c4ccccc4c(-c4ccc5ccccc5c4)c4ccccc34)c2)cc1 [Compound 2] | C | C | A | A | C | C | A | C | A | A
7 | c1cc(-c2ccc3ccccc3c2)cc(-c2c3ccccc3c(-c3ccc4cc(-c5ccc6ccccc6c5)ccc4c3)c3ccccc23)c1 [Compound 4] | C | C | A | C | C | C | A | C | C | C
8 | c1ccc2cc(-c3c4ccccc4c(-c4ccc5ccccc5c4)c4ccccc34)ccc2c1 [Compound 11] | C | C | C | C | C | C | C | C | C | C
9 | c1cc(-c2ccc3ccccc3c2)cc(-c2c3ccccc3c(-c3ccc4ccccc4c3)c3ccccc23)c1 [Compound 10] | C | C | A | C | C | C | A | C | A | A
10 | c1ccc(-c2ccc(-c3ccccc3-c3c4ccccc4c(-c4c5ccccc5c(-c5ccccc5-c5ccc(-c6ccccc6)cc5)c5ccccc45)c4ccccc34)cc2)cc1 [Compound 14] | C | C | A | A | C | C | A | C | A | C
11 | c1ccc2cc(-c3ccc(-c4ccc(-c5c6ccccc6c(-c6ccc7ccccc7c6)c6ccccc56)cc4)c4ccccc34)ccc2c1 [Compound 9] | C | C | A | C | C | C | A | C | C | C
12 | c1ccc(-c2ccc3cc(-c4cccc(-c5c6ccccc6c(-c6ccc(-c7cccc8ccccc78)cc6)c6ccccc56)c4)ccc3c2)cc1 [Compound 3] | C | C | A | A | C | C | A | C | A | A
13 | c1ccc(-c2ccc3ccc(-c4c5ccccc5c(-c5cccc(-c6ccc7ccccc7c6)c5)c5ccccc45)cc3c2)cc1 [Compound 5] | C | C | A | C | C | C | A | C | C | C
14 | c1ccc(-c2ccc3cc(-c4cccc(-c5c6ccccc6c(-c6ccc7ccccc7c6)c6ccccc56)c4)ccc3c2)cc1 [Compound 8] | C | C | A | C | C | C | A | C | C | C

same assay, conditions: cyclohexanone

Row | Structure (SMILES) | dissolution in cyclohexanone (in words)
15 | c1cc(-c2ccc3ccccc3c2)cc(-c2c3ccccc3c(-c3ccc4cc(-c5ccc6ccccc6c5)ccc4c3)c3ccccc23)c1 [Compound 4] | dissolved

same assay, conditions: toluene

Row | Structure (SMILES) | dissolution in toluene (in words)
16 | c1cc(-c2ccc3ccccc3c2)cc(-c2c3ccccc3c(-c3ccc4cc(-c5ccc6ccccc6c5)ccc4c3)c3ccccc23)c1 [Compound 4] | not dissolved

experiment: Solubility Evaluation 2: naphthacene compounds in various solvents, visual check; assay type: physicochemical; parameters: key: A: it was confirmed that the compounds were dissolved in the dropped solvents; C: the compounds were not completely dissolved and undissolved residues remained; conditions: 30 mg compound, 1 g solvent
Experimental: as §1
Next, naphthacene compounds 15 and 16 were used in place of the anthracene compounds, and the solubility was evaluated in the same manner as the above. Same as in Solubility Evaluation 1, by visual check, a case where it was confirmed that the compounds were dissolved in the dropped solvents is marked as A and a case where the compounds were not completely dissolved and undissolved residues remained is marked as C. Moreover, a case where precipitation was observed after several hours of dissolution is marked as B. Result of solubility evaluation will be shown in Table 3 below.

Row | Structure (SMILES) | Solubility in Cycloheptanone | Solubility in Cyclohexanone | Solubility in N-methylpyrolidone | Solubility in Toluene | Solubility in Xylene
17 | c1ccc(-c2cc(-c3ccccc3)c(-c3c4ccccc4c(-c4ccccc4)c4cc5ccccc5cc34)c(-c3ccccc3)c2)cc1 [Compound 16] | A | A | A | C | C

experiment: Solvent solubility of naphthacene host compound; assay type: physicochemical; conditions: aromatic substituent bonded to naphthacene skeleton in para position; solvent not stated
Source text: For instance, when an aromatic group as a substituent is bonded to a naphthacene skeleton in para position, the solubility is lowered.

Row | Structure (SMILES) | solubility [mass %]
18 | c1ccc(-c2ccc(-c3c4ccccc4c(-c4ccc(-c5ccccc5)cc4-c4ccccc4)c4cc5ccccc5cc34)c(-c3ccccc3)c2)cc1 | ≤ 0.1
